Measured values taken from patent US20100041089A1, “IMPROVED METHOD FOR DETECTING CHEMICAL […]” (priority 2006, published 2010).

Test system: yeast genes (expressed mRNA)
Assay: DNA chip measurement of expressed mRNA of yeast genes after culture with a toxic chemical substance
Type: cell-based, Saccharomyces cerevisiae S288C
Protocol: Yeast (Saccharomyces cerevisiae S288C (a SUC2mal mel gap2 CUP1)) were cultured at 25° C. on YPD medium (yeast extract 1%, polypeptone 2%, glucose 2%). One of toxic chemical substances was added to the cell at logarithmic growth phase, and the cell was further cultured for two hours. Cell was cultured without any chemical substance in the same condition, and was used as a control. Concentrations of the chemical substances were defined to inhibit the growth of the yeast but not lead to death.
After the completion of cultivation, the culture was centrifuged to collect the cells. To the cells, sodium acetate buffer (50 mM sodium acetate, 10 mM EDTA, 1% SDS) was added, and the mixture was shaken at 65° C. for five minutes, followed by returning to room temperature, and obtaining the supernatant, which procedure was repeated two times. To the supernatant, ½ amount of a solution of phenol/chloroform (1:1) was added, and the mixture was centrifuged to give a supernatant, an equal amount of chloroform was added, and the mixture was centrifuged to give a supernatant. To the supernatant, an equal amount of isopropanol containing 0.3 M sodium acetate was added, and the mixture was allowed to stand at room temperature for 30 minutes, after which the mixture was centrifuged to give sediment of the whole RNAs. Seventy % ethanol was added to the sediment, and the mixture was again centrifuged to give sediment, which was then dried and dissolved in water. mRNA was isolated from the whole RNAs as followings. In view of the fact that a poly A chain is attached to the 3′ terminus of mRNA, a polynucleotide having a poly T structure which was immobilized on the surface of latex beads was used to trap the mRNA, and then the mRNA was washed and eluted with spine column (Oligotex-dT30<Super>mRNA Purification Kit, Takara). Reverse transcription of the mRNA was conducted with a reverse transcriptase (Super Script II Reverse Transcriptase; catalogue No. 18064-014, GibcoBRL) using fluorescence-labeled nucleotides to give cDNAs that were introduced with Cy3-dUTP or Cy5-dUTP during the reverse transcription.
The labeled cDNAs were dissolved in TE buffer (10 mM Tris-HCl/1 mM EDTA, pH 8.0), and the solution was dropped on the DNA chip containing the whole genes of yeast (DNA Chip Research Inc. Japan) so that the cDNAs were hybridized on the DNA chip at 65° C. for over 12 hours. The fluoresces intensity of the DNA chip was read with a scanner, and the ratio relative to the fluorescence intensity resulting from the absence of chemical substance was estimated as the following, which is shown in Tables 1 to 9.
In the Tables, “Intensity” indicated in the rightmost column is a value of the level of expressed mRNA of each gene in control cells as divided by the average level of the expressions of the whole genes. A gene of which mRNA level is lower in control, and is higher in cases of addition of chemical substance, is especially useful in the detection of toxic substances.
Here, when a ratio of an amount of mRNA expressed in the presence of the chemical substance to an amount of mRNA expressed in the absence of the chemical substance is two or more, then it is considered significant.

`N#Cc1c(Cl)c(Cl)c(Cl)c(C#N)c1Cl` [(9), 2,4,5,6-Tetrachloro-1,3-benzenedicarbonitrile] was tested, and the “The level of expressed mRNA in the presence of chemical substance/The level of expressed mRNA in the absence of chemical substance” value (yeast gene YJL108C, cultured two hours with substance) was 0.3, the “The level of expressed mRNA in the presence of chemical substance/The level of expressed mRNA in the absence of chemical substance” value (yeast gene YJL144W, cultured two hours with substance) was 14.6 and the “The level of expressed mRNA in the presence of chemical substance/The level of expressed mRNA in the absence of chemical substance” value (yeast gene YJL149W, cultured two hours with substance) was 1.5. The “The level of expressed mRNA in the presence of chemical substance/The level of expressed mRNA in the absence of chemical substance” value (yeast gene YJL151C, cultured two hours with substance) was 0.5, the “The level of expressed mRNA in the presence of chemical substance/The level of expressed mRNA in the absence of chemical substance” value (yeast gene YJL152W, cultured two hours with substance) was 0.3 and the “The level of expressed mRNA in the presence of chemical substance/The level of expressed mRNA in the absence of chemical substance” value (yeast gene YJL161W, cultured two hours with substance) was 3.1. The “The level of expressed mRNA in the presence of chemical substance/The level of expressed mRNA in the absence of chemical substance” value (yeast gene YJL163C, cultured two hours with substance) was 14.5, the “The level of expressed mRNA in the presence of chemical substance/The level of expressed mRNA in the absence of chemical substance” value (yeast gene YJL171C, cultured two hours with substance) was 1.0 and the “The level of expressed mRNA in the presence of chemical substance/The level of expressed mRNA in the absence of chemical substance” value (yeast gene YJL186W, cultured two hours with substance) was 0.2. For the same compound, the “The level of expressed mRNA in the presence of chemical substance/The level of expressed mRNA in the absence of chemical substance” value (yeast gene YJR008W, cultured two hours with substance) was 1.8, the “The level of expressed mRNA in the presence of chemical substance/The level of expressed mRNA in the absence of chemical substance” value (yeast gene YJR074W, cultured two hours with substance) was 3.7 and the “The level of expressed mRNA in the presence of chemical substance/The level of expressed mRNA in the absence of chemical substance” value (yeast gene YJR085C, cultured two hours with substance) was 3.7. The “The level of expressed mRNA in the presence of chemical substance/The level of expressed mRNA in the absence of chemical substance” value (yeast gene YJR155W) was 38.2, the “The level of expressed mRNA in the presence of chemical substance/The level of expressed mRNA in the absence of chemical substance” value (yeast gene YJR155W, cultured for two hours with substance) was 38.2 and the “The level of expressed mRNA in the presence of chemical substance/The level of expressed mRNA in the absence of chemical substance” value (yeast gene YKL071W, cultured two hours with substance) was 162.2. For the same compound, the “The level of expressed mRNA in the presence of chemical substance/The level of expressed mRNA in the absence of chemical substance” value (yeast gene YKL086W, cultured two hours with substance) was 8.2, the “The level of expressed mRNA in the presence of chemical substance/The level of expressed mRNA in the absence of chemical substance” value (yeast gene YKL107W, cultured two hours with substance) was 28.2 and the “The level of expressed mRNA in the presence of chemical substance/The level of expressed mRNA in the absence of chemical substance” value (yeast gene YKL151C, cultured two hours with substance) was 3.3. The “The level of expressed mRNA in the presence of chemical substance/The level of expressed mRNA in the absence of chemical substance” value (yeast gene YKL153W, cultured two hours with substance) was 0.8, the “The level of expressed mRNA in the presence of chemical substance/The level of expressed mRNA in the absence of chemical substance” value (yeast gene YKL195W, cultured two hours with substance) was 3.6 and the “The level of expressed mRNA in the presence of chemical substance/The level of expressed mRNA in the absence of chemical substance” value (yeast gene YKR091W, cultured two hours with substance) was 1.0. The “The level of expressed mRNA in the presence of chemical substance/The level of expressed mRNA in the absence of chemical substance” value (yeast gene YLL055W (transport facilitation protein gene)) was 19.1, the “The level of expressed mRNA in the presence of chemical substance/The level of expressed mRNA in the absence of chemical substance” value (yeast gene YLL056C, cultured two hours with substance) was 58.8 and the “The level of expressed mRNA in the presence of chemical substance/The level of expressed mRNA in the absence of chemical substance” value (yeast gene YLL060C (stress protein genes)) was 13.0. The “The level of expressed mRNA in the presence of chemical substance/The level of expressed mRNA in the absence of chemical substance” value (yeast gene YLL062C, cultured two hours with substance) was 14.9, the “The level of expressed mRNA in the presence of chemical substance/The level of expressed mRNA in the absence of chemical substance” value (yeast gene YLR031W, cultured two hours with substance) was 0.9 and the “The level of expressed mRNA in the presence of chemical substance/The level of expressed mRNA in the absence of chemical substance” value (yeast gene YLR054C, cultured two hours with substance) was 2.7. The “The level of expressed mRNA in the presence of chemical substance/The level of expressed mRNA in the absence of chemical substance” value (yeast gene YLR149C, cultured two hours with substance) was 6.2, the “The level of expressed mRNA in the presence of chemical substance/The level of expressed mRNA in the absence of chemical substance” value (yeast gene YLR152C, cultured two hours with substance) was 0.6 and the “The level of expressed mRNA in the presence of chemical substance/The level of expressed mRNA in the absence of chemical substance” value (yeast gene YLR194C, cultured two hours with substance) was 0.9. For the same compound, the “The level of expressed mRNA in the presence of chemical substance/The level of expressed mRNA in the absence of chemical substance” value (yeast gene YLR204W, cultured two hours with the substance) was 1.4, the “The level of expressed mRNA in the presence of chemical substance/The level of expressed mRNA in the absence of chemical substance” value (yeast gene YLR205C, cultured two hours with substance) was 1.5 and the “The level of expressed mRNA in the presence of chemical substance/The level of expressed mRNA in the absence of chemical substance” value (yeast gene YLR324W, cultured two hours with substance) was 3.1. For the same compound, the “The level of expressed mRNA in the presence of chemical substance/The level of expressed mRNA in the absence of chemical substance” value (yeast gene YLR350W, cultured two hours with substance) was 0.6, the “The level of expressed mRNA in the presence of chemical substance/The level of expressed mRNA in the absence of chemical substance” value (yeast gene YLR387C, cultured two hours with substance) was 7.8 and the “The level of expressed mRNA in the presence of chemical substance/The level of expressed mRNA in the absence of chemical substance” value (yeast gene YLR460C, cultured two hours with substance) was 13.9. For the same compound, the “The level of expressed mRNA in the presence of chemical substance/The level of expressed mRNA in the absence of chemical substance” value (yeast gene YML117W, cultured two hours with substance) was 1.0, the “The level of expressed mRNA in the presence of chemical substance/The level of expressed mRNA in the absence of chemical substance” value (yeast gene YMR009W, cultured two hours with substance) was 3.4 and the “The level of expressed mRNA in the presence of chemical substance/The level of expressed mRNA in the absence of chemical substance” value (yeast gene YMR067C, cultured two hours with substance) was 4.0. For the same compound, the “The level of expressed mRNA in the presence of chemical substance/The level of expressed mRNA in the absence of chemical substance” value (yeast gene YMR090W, cultured two hours with substance) was 16.7, the “The level of expressed mRNA in the presence of chemical substance/The level of expressed mRNA in the absence of chemical substance” value (yeast gene YMR097C, cultured two hours with substance) was 2.1 and the “The level of expressed mRNA in the presence of chemical substance/The level of expressed mRNA in the absence of chemical substance” value (yeast gene YMR102C, cultured two hours with substance) was 1.7. The “The level of expressed mRNA in the presence of chemical substance/The level of expressed mRNA in the absence of chemical substance” value (yeast gene YMR107W, cultured two hours with substance) was 6.0, the “The level of expressed mRNA in the presence of chemical substance/The level of expressed mRNA in the absence of chemical substance” value (yeast gene YMR140W, cultured two hours with substance) was 1.8 and the “The level of expressed mRNA in the presence of chemical substance/The level of expressed mRNA in the absence of chemical substance” value (yeast gene YMR180C, cultured two hours with substance) was 1.8. The “The level of expressed mRNA in the presence of chemical substance/The level of expressed mRNA in the absence of chemical substance” value (yeast gene YMR184W, cultured two hours with substance) was 2.1, the “The level of expressed mRNA in the presence of chemical substance/The level of expressed mRNA in the absence of chemical substance” value (yeast gene YMR191W, cultured two hours with substance) was 2.2 and the “The level of expressed mRNA in the presence of chemical substance/The level of expressed mRNA in the absence of chemical substance” value (yeast gene YMR195W, cultured two hours with substance) was 0.2. The “The level of expressed mRNA in the presence of chemical substance/The level of expressed mRNA in the absence of chemical substance” value (yeast gene YMR295C, cultured two hours with substance) was 1.0 and the “The level of expressed mRNA in the presence of chemical substance/The level of expressed mRNA in the absence of chemical substance” value (yeast gene YMR315W, cultured two hours with substance) was 2.4.
